{
  "source": "patent US9365539B2",
  "about": "“Prolylcarboxypeptidase inhibitors” (Merck Sharp & Dohme Corp., priority 2010, dated 2016)",
  "data": [
    {"tested_on": "not given", "test": "not given", "settings": "systemic administration to obese, leptin deficient mice; cited from earlier work", "values": [
      {"compound": "t-butyl carbamate-prolyl prolinal [BPP]", "overnight food intake": "suppression of overnight food intake"}
    ]},
    {"biological_target": "human PrCP (Homo sapiens (Human), UniProt P42785)", "sequence (P42785 46-496)": "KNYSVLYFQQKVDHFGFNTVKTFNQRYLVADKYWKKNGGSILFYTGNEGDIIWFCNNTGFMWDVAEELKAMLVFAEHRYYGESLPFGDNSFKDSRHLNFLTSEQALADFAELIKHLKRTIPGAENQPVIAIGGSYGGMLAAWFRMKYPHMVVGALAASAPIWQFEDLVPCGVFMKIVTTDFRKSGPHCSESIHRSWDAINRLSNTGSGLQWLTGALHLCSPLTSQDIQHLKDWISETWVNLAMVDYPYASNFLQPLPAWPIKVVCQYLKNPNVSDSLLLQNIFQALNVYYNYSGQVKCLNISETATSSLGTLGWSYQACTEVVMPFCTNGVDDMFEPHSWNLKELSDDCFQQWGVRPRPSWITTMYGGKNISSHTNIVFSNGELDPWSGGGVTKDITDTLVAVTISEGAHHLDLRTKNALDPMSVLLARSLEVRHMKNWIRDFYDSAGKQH", "test": "Prolylcarboxypeptidase (PRCP) enzyme activity assay, fluorescence intensity kinetic assay", "type": "biochemical", "settings": "recombinant human PrCP (CHO), 15 uM substrate, pH 5.5, 37° C.", "procedure": "The potency of compounds of formula I against PrCP was determined by a fluorescence intensity kinetic assay measuring the IC50 values of PrCP inhibitor test compounds. […] The assay was run on a Perkin Elmer Envision 2103 plate reader using a 320 nm excitation filter and a 405 emission filter. The assay was performed using a Hamilton Star liquid handling workstation. The assay employed the internally quenched fluorescent substrate (1S)-1-carboxy-5-[(2,4-dinitrophenyl)amino]pentyl N-[(7-methoxy-2-oxo-2H-chromen-4-yl)acetyl]-L-alanyl-L-prolinate prepared in house.\nThe assay was run in a 384-well microliter plate at 37° C. with a total volume of 50 uL. Final assay concentrations were 0.13 nM human PrCP (CHO) or 0.09 nM mouse PrCP (CHO) enzyme, 15 uM substrate and varying concentrations of inhibitor in buffer containing 10 mM NaOAc, 100 mM NaCl and 19.5 ug/mL BSA at pH 5.5. The assay also contained 2% DMSO used to solubilize the substrate and inhibitor. Inhibitors were prepared in 100% DMSO and serial diluted (in 100% DMSO) to generate 11 point titration curves. Either 39 uL of human or mouse PrCP enzyme was added to the wells of the assay plate, followed by a 1 uL addition of the serially diluted inhibitor and mixed three times using a 30 uL mix volume. The reaction was initiated by the addition of 10 uL substrate and mixed three times using a 30 μL mix volume. The reactions were monitored continuously over 25 min at 37° C. to obtain initial velocities. IC50 values were calculated by comparing the resulting rates of reaction of the inhibited and control initial velocities.\nThe enzymes were diluted in a mixture of 10 mM NaOAc (pH 5.5)/100 mM NaCl buffer containing 25 ug/mL bovine serum albumin that had been warmed to 37° C. in a water bath. The PrCP inhibitor test compounds were plated in 100% DMSO with a highest concentration of 500 uM. There were 12 dilution points for each compound tested including a blank with DMSO only. The test compounds from the source titration plate were transferred into the assay reaction plate at a 1:50 dilution using the Hamilton Star workstation and mixed, resulting in a final concentration for the test compounds in the range of 10,000 to 0.066 nM. Likewise, two control compounds were similarly titrated and included in each assay, with final starting concentrations starting at 10,000 nM and 200 nM, respectively. The reaction was initiated by the addition of 75 uM of the (1S)-1-carboxy-5-[(2,4-dinitrophenyl)amino]pentyl N-[(7-methoxy-2-oxo-2H-chromen-4-yl)acetyl]-L-alanyl-L-prolinate substrate, which was diluted in a mixture of 10 mM NaOAc (pH 5.5)/100 mM NaCl that had been warmed to 37° C. in a water bath, dispensed using the Hamilton Star workstation and mixed. The substrate was solubilized in 100% DMSO prior to dilution into the assay. The final assay concentrations in the 50 uL reactions were 15 uM of (1S)-1-carboxy-5-[(2,4-dinitrophenyl)amino]pentyl N-[(7-methoxy-2-oxo-2H-chromen-4-yl)acetyl]-L-alanyl-L-prolinate substrate, 0.13 nM Human PrCP (CHO) or 0.09 nM Mouse PrCP (CHO), and 2% DMSO.\nThe resulting rates of reaction were used to determine the IC50 value for each PrCP inhibitor compound tested.", "units": {"IC50": "nM"}, "values": [
      {"compound": "Clc1ccc(-c2cc(C3CCN(CCc4ccccc4)CC3)n(-c3ncccn3)n2)cc1", "note": "[Example 1, 2-{3-(4-Chlorophenyl)-5-[1-(2-phenylethyl)piperidin-4-yl]-1H-pyrazol-1-yl}pyrimidine]", "IC50": 0.051},
      {"compound": "Clc1ccc(-c2cc(C3CCN(CCc4ccccc4)CC3)nn2-c2ccncn2)cc1", "note": "[Example 13, 4-{5-(4-chlorophenyl)-3-[1-(2-phenylethyl)piperidin-4-yl]-1 Hyl}pyrimidine]", "IC50": 38.4},
      {"compound": "CCn1nc(-c2ccc(Cl)cc2)cc1C1CCN(CCc2ccccc2)CC1", "note": "[Example 26, 4-[3-(4-chlorophenyl)-1-ethyl-1 H-pyrazol-5-yl]-1-(2-phenylethyl)piperidine]", "IC50": 31.8},
      {"compound": "COC(=O)C(CN1CCC(c2cc(-c3ccc(F)cc3)nn2-c2ncccn2)CC1)c1ccccc1", "note": "(centres unmarked) [Example 33, Methyl 3-{4-[3-(4-fluorophenyl)-1-(pyrimidin-2-yl)-1 H-pyrazol-5-yl]piperidin-1-pyrazol-5-yl]piperidin-1]", "IC50": 0.035},
      {"compound": "O=C(O)C(CN1CCC(c2cc(-c3ccc(F)cc3)nn2-c2ncccn2)CC1)c1ccccc1", "note": "(centres unmarked) [Example 34, 3-{4-[3-(4-fluorophenyl)-1-(pyrimidin-2-yl)-1 H-pyrazol-5-yl]piperidin-1-yl}-2-phenylpropanoic acid]", "IC50": 0.51},
      {"compound": "OC(CN1CCC(c2cc(-c3ccc(Cl)cc3)nn2-c2ncccn2)CC1)c1ccccc1", "note": "(centres unmarked) [Example 36, 2-{4-[3-(4-Chlorophenyl)-1-(pyrimidin-2-yl)-1H-pyrazol-5-yl]piperidin-1-yl}-1-phenylethanol]", "IC50": 0.31},
      {"compound": "O=S(=O)(c1ccc(N2CCC(c3cc(-c4ccc(Cl)cc4)nn3-c3ncccn3)CC2)nc1)N1CCOCC1", "note": "[Example 48, 4-[(6-{4-[3-(4-chlorophenyl)-1-(pyrimidin-2-yl)-1 H-pyrazol-5-yl]piperidin-1-yl}pyridin-3-yl)sulfonyl]morpholine]", "IC50": 80.2},
      {"compound": "CS(=O)(=O)N1CCC(N2CCC(c3cc(-c4ccc(Cl)cc4)nn3-c3ccccc3)CC2)C1", "note": "(centres unmarked) [Example 60, 4-[3-(4-chlorophenyl)-1-phenyl-1 H-pyrazol-5-yl]-1-[1-(methylsulfonyl)pyrrolidin-3-yl]piperidine]", "IC50": 21.1},
      {"compound": "O=C(Cc1ccccc1C(F)(F)F)N1CCC(c2cc(-c3ccc(F)cc3)nn2-c2ncccn2)CC1", "note": "[Example 68, 1-{4-[3-(4-fluorophenyl)-1-(pyrimidin-2-yl)-1 H-pyrazol-5-yl]piperidin-1-yl}-2-[2-(trifluoromethyl)phenyl]ethanone]", "IC50": 1.28},
      {"compound": "CO[C@@H](CN1CCC(c2nc(-c3ccc(F)cc3)nn2-c2ncccn2)CC1)c1ccccc1", "note": "[Example 81, 2-[3-(4-fluorophenyl)-5-{1-[(2 R)-2-methoxy-2-phenylethyl]piperidin-4-yl}-1 H-1,2,4-triazol-1-yl]pyrimidine]", "IC50": 2.58},
      {"compound": "Fc1ccc(-c2nc(C3C4CN(CCc5ccccc5)CC43)n(-c3ncccn3)n2)cc1", "note": "(centres unmarked) [Example 82, 6-[3-(4-Fluorophenyl)-1-(pyrimidin-2-yl)-1H-1,2,4-triazol-5-yl]-3-(2-phenylethyl)-3-azabicyclo[3.1.0]hexane]", "IC50": 28.6}
    ]},
    {"tested_on": "not given", "test": "not given", "settings": "intracerebroventricular to rats; cited from earlier work", "values": [
      {"compound": "t-butyl carbamate-prolyl prolinal [BPP]", "overnight food intake": "suppression of overnight food intake"}
    ]},
    {"tested_on": "not given", "test": "not given", "settings": "limited weight loss of about; cited from earlier work", "values": [
      {"compound": "CCN[C@@H](C)Cc1cccc(C(F)(F)F)c1", "note": "[dexfenfluramine]", "weight loss, of body weight, drug compared to placebo": "5%-10%"},
      {"compound": "CCCCCCCCCCC[C@@H](C[C@@H]1OC(=O)[C@H]1CCCCCC)OC(=O)[C@H](CC(C)C)NC=O", "note": "[orlistat]", "weight loss, of body weight, drug compared to placebo": "5%-10%"},
      {"compound": "CC(C)(N)Cc1ccccc1", "note": "[phentermine]", "weight loss, of body weight, drug compared to placebo": "5%-10%"},
      {"compound": "CC(C)CC(N(C)C)C1(c2ccc(Cl)cc2)CCC1", "note": "(centres unmarked) [sibutramine]", "weight loss, of body weight, drug compared to placebo": "5%-10%"}
    ]}
  ]
}
